What was measured:
[1] = target: T1, 5-HT2A receptor (Homo sapiens, UniProt P28223); assay: Functional activity, FLIPR calcium assay in CHO cells expressing human 5-HT2A; type: cell-based; design: expressed in transfected cells; host or cells: CHO cells; conditions: for EC50: CHO cells, FLIPR, Fluo-3-AM, read-out: h5-HT2A EC50; for h5-HT2A Rel. Eff.: maximum fluorescent signal relative to 10 μM 5-HT (defined as 100%)
Method: (§1) The functional activity of compounds of formula (I) was assayed using a Fluorimetric Imaging Plate Reader (FLIPR). CHO cells expressing the human 5-HT2C or human 5-HT2A receptors were counted and plated into standard 96 well microtitre plates on the day before testing to give a confluent monolayer. The cells were then loaded with the calcium sensitive dye, Fluo-3-AM. Unincorporated dye was removed using an automated cell washer to leave a total volume of 100 μL/well of assay buffer (Hanks balanced salt solution containing 20 mM Hepes and 2.5 mM probenecid). The drug (dissolved in 50 μL of the assay buffer) was added at a rate of 70 μL/sec to each well of the FLIPR 96 well plate during fluorescence measurements. The measurements were taken at 1 sec intervals and the maximum fluorescent signal was measured (approx 10-15 secs after drug addition) and compared with the response produced by 10 μM 5-HT (defined as 100%) to which it was expressed as a percentage response (relative efficacy). Dose response curves were constructed using Graphpad Prism (Graph Software Inc.).

[2] = target: T2, 5-HT2C receptor (Homo sapiens, UniProt P28335); assay: Functional activity, FLIPR calcium assay in CHO cells expressing human 5-HT2C; type: cell-based; design: expressed in transfected cells; host or cells: CHO cells; conditions: for EC50: CHO cells, FLIPR, Fluo-3-AM, read-out: h5-HT2C EC50; for h5-HT2C Rel. Eff.: maximum fluorescent signal relative to 10 μM 5-HT (defined as 100%)
T2 sequence (P28335 33-458): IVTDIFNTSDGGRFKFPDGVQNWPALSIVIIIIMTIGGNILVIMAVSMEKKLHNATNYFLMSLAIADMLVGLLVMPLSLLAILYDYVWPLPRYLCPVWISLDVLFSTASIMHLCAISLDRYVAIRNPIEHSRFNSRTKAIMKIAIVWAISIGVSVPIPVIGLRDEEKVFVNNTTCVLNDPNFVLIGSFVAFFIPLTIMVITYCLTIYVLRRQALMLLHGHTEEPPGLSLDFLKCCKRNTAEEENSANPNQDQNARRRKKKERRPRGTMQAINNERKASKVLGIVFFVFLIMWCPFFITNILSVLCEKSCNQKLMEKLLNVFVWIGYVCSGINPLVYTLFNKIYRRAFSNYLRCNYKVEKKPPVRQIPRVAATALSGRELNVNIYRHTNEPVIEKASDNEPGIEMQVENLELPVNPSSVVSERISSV
Method: as §1

[3] = target: T2, 5-HT2C receptor; assay: Binding to 5-HT2C receptor, [3H]-5-HT radioligand, Method (a); design: expressed in transfected cells; host or cells: CHO cell line; conditions: 5-HT2C receptors in a CHO cell line, read-out: Method (a) Ki (2C)
Method: (§2) The binding of compounds of formula (I) to serotonin receptors was determined in vitro by standard methods. The preparations were investigated in accordance with the assays given hereinafter.
Method (a): For the binding to the 5-HT2C receptor the 5-HT2C receptors were radiolabeled with [^3H]-5-HT. The affinity of the compounds for 5-HT2C receptors in a CHO cell line was determined according to the procedure of D. Hoyer, G. Engel and H. O. Kalkman, European J. Pharmacol., 1985, 118, 13-23.

[4] = target: T1, 5-HT2A receptor; assay: Binding to 5-HT2A receptor, [125I]-DOI radioligand, Method (c); design: expressed in transfected cells; host or cells: CHO cell line; conditions: 5-HT2A receptors in a CHO cell line, read-out: Method (c) Ki (2A)
Method: as §2
Method (c): For the binding to the 5-HT2A receptor the 5-HT2A receptors were radiolabeled with [^125I]-DOI. The affinity of the compounds for 5-HT2A receptors in a CHO cell line was determined according to the procedure of D. J. McKenna and S. J. Peroutka, J. Neurosci., 1989, 9, 3482-90.

[5] = target: T3, human 5-HT2B receptors (Homo sapiens, UniProt P41595); assay: Binding to 5-HT2B receptor, [3H]-5-HT radioligand, Method (b); conditions: human 5-HT2B receptors in a CHO cell line, read-out: Method (b) Ki (2B)
T3 construct: expressed in transfected cells; host or cells: CHO cell line
Method: as §2
Method (b): For the binding to the 5-HT2B receptor the 5-HT2B receptors were radiolabeled with [^3H]-5-HT. The affinity of the compounds for human 5-HT2B receptors in a CHO cell line was determined according to the procedure of K. Schmuck, C. Ullmer, P. Engels and H. Lubbert, FEBS Lett., 1994, 342, 85-90.

T3 sequence (P41595 whole entry): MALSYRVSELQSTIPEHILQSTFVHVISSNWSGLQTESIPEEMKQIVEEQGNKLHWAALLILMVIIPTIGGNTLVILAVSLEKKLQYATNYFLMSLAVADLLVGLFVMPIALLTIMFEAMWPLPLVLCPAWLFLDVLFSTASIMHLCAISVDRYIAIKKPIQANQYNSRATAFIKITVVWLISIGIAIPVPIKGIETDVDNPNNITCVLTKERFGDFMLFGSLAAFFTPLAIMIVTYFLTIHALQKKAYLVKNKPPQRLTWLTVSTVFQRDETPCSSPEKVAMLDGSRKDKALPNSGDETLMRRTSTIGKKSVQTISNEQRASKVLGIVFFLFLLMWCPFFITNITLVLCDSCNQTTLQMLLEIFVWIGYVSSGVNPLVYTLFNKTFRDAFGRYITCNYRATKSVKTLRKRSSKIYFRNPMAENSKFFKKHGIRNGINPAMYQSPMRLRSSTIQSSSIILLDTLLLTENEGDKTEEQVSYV
T1 sequence (P28223 whole entry): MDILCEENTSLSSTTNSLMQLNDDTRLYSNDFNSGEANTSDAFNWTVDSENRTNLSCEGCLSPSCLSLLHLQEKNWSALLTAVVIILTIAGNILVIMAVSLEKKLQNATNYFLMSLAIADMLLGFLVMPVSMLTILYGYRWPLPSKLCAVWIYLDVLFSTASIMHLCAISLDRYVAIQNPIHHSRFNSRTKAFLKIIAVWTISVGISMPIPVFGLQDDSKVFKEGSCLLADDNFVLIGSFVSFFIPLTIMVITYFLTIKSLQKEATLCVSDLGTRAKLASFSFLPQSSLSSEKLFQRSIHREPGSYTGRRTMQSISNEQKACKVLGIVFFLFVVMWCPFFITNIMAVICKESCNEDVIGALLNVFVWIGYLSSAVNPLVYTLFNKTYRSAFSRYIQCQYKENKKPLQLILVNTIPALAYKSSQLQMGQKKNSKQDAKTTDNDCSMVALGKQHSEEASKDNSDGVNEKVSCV

Row | Compound | melting point [°C] | EC50 [1] [µM] | h5-HT2A Rel. Eff. [1] [%] | EC50 [2] [µM] | h5-HT2C Rel. Eff. [2] [%] | Ki [3] [µM] | Ki [4] [µM] | Ki [5] [µM]
1 | Cc1c2c(nc3c1C[C@@H]1CNC[C@@H](C)N31)COC2 | 118 to 119 |  |  |  |  |  |  | 
2 | C[C@@H]1OCc2cc3c(nc21)N1[C@@H](CNC[C@H]1C)C3 | 90 to 91 |  |  |  |  |  |  | 
3 | C[C@@H]1CNC[C@H]2Cc3cc4c(nc3N21)[C@H](C1CC1)OC4 [Example 17, (3S,5R,8aR)-3-Cyclopropyl-5-methyl-1,3,5,6,7,8,8a,9-octahydro-2-oxa-4,4b,7-triaza-cyclopehta[b]fluorene] |  | 0.534 | 35 | 0.0124 | 95 | 0.0234 | 0.635 | 0.76
4 | C[C@@H]1CNC[C@H]2Cc3cc4c(nc3N21)C(C)(C)OC4 [Example 19, (5R,8aR)-3,3,5-Trimethyl-1,3,5,6,7,8,8a,9-octahydro-2-oxa-4,4b,7-triaza-cyclopenta[b]fluorene] |  | > 1 | 3 | 0.0084 | 87 | 0.0055 | 0.0802 | 0.0263
5 | C[C@@H]1CNC[C@H]2Cc3cc4c(nc3N21)CSC4 [Example 33, (5R,8aR)-5-Methyl-1,3,5,6,7,8,8a,9-octahydro-2-thia-4,4b,7-triaza-cyclopenta[b]fluorene] |  |  |  |  |  | 0.0053 | 0.0989 | 0.0211
